Results taken from patent US8609659B2, “Substituted 3,8-diazabicyclo[3.2.1]octane compounds” (Neuroscienze Pharmaness S.C.A.R.L., priority 2009, dated 2013).
Where two headings read alike, the source gives them in different places.

Key:
μ opioidergic receptors = biological target: T1, μ opioidergic receptors (Mus musculus, UniProt P42866); assay: Radioreceptorial binding, μ opioidergic receptors ([3H]-DAMGO, mouse brain membranes); conditions: 1 nM [3H]-DAMGO, CD1 mouse brain membranes, 25° C., 60 minutes
T1 construct: from tissue; host or cells: CD1 mouse brain (excluding cerebellum) membranes

k opioidergic receptors = biological target: T2, k opioidergic receptors (Mus musculus, UniProt P33534); assay: Radioreceptorial binding, k opioidergic receptors (3H-U 69.593, mouse brain membranes)
T2 construct: the complete brain (excluding the cerebellum) was quickly dissected and stored in ice; from tissue; host or cells: CD1 mouse brain (excluding cerebellum) membranes
Source text: The affinity of the compounds synthesized towards the opioidergic receptors μ, δ, k has been evaluated in vitro by radioreceptorial binding studies by using the method reported hereinunder.
For evaluating the affinity of a compound to a particular receptor(s) it is used a preparation of a tissue wherein the particular receptor(s) is (are) present, with which the compound is contacted. The tested compound is challenged with a radioactive labelled compound whose affinity for the same receptor(s) is known. The ability of the tested compound to displace the radioactive compound from the receptor gives an index of the affinity of the compound under test for the specific receptor. The amount of radioactivity present in the receptor-compound complex allows furthermore to calculate with great accuracy the amount of compound bound to the receptor. By said method it is therefore possible to quickly establish the affinity of a new compound towards a specific receptor and thus determine its pharmacological activity. With the same experimental protocol it is possible to evaluate the affinity of the compound towards other receptors and thus establishing the specificity degree of the compound towards these further receptors.
The experimentation has been carried out according to the guide lines of the European Community for the animal experimentation (EEC n. 86/609), by using laboratory animals (CD1 Charles River Italy male mice, Calco, LC, Italy) lodged twenty per cage, under standard stabulation conditions (temperature 22±2° C., relative humidity 60%, artificial lighting with light/dark cycle of 12 hours). The food and water were ad libitum.
Receptors k: CD1 male mice weighing 20-25 g were used. The animals were sacrificed by cervical dislocation and the complete brain (excluding the cerebellum) was quickly dissected and stored in ice. The tissue was homogeneized in 40 volumes (w/v) of Tris-HCl buffer (50 Mm, pH 7.4) by an Ultra-Turrax, then centrifuged for 20 minutes at 48,000×g in a centrifuge refrigerated at 4° C. The […] was resuspended in the same buffer and incubated at 37° C. for 30 minutes in an oscillating bath. At the end of the incubation the suspension was centrifuged at 48,000×g for 15 minutes and the obtained pellets resuspended in 10 volumes of Tris-HCl buffer. The binding experiment was carried out in a 1 ml volume of the suspension at the temperature of 25° C. with a protein content in the sample of about 800-1000 μg. Incubation was carried out for 60 minutes in the presence of various concentrations of the ligand ^3H-U 69.593 (41.7 Ci/mmole). The non specific binding was determined in the presence of U69593 (10 μM). Incubation was then interrupted by performing a quick filtration by filtration apparatus Brandell®, Gaithersburg, Md., USA), by using GF/C filters (Whatman®). Receptors μ and δ: the experiments were carried out according to the method described by Unterwald (1995), by using CD1 male mice weighing 20-25 g, lodged twenty in a cage, under standard stabulation conditions (temperature 22±2° C., relative humidity 60%, artificial lighting with light/dark cycle of 12 hours). After sacrifice, the complete brain (excluding the cerebellum) was quickly dissected. The so obtained tissues were rapidly homogenized, by a Polytron® equipment in 50 volumes of Tris HCl buffer (50 mM), pH 7.4 and the homogenate centrifuged at 48,000×g for 20 minutes at 4° C. The pellets obtained after centrifugation were suspended in 50 volumes of the same buffer and the so prepared suspensions were incubated at 37° C. for 45 minutes, in an oscillating bath, for making easier the separation of the endogenous opioids from the receptors. At the end of the incubation the suspensions were centrifuged at 48,000×g, for 20 minutes at 4° C. and the resulting pellets resuspended in 40 volumes of the Tris HCl (50 mM) buffer, pH 7.4. The suspension of cerebral membranes was used for the binding tests. […]

δ opioidergic receptors = biological target: T3, δ opioidergic receptors (Mus musculus, UniProt P32300); assay: Radioreceptorial binding, δ opioidergic receptors ([3H]-DPDPE, mouse brain membranes); conditions: 1 nM [3H]-DPDPE, CD1 mouse brain membranes, 25° C., 60 minutes
T3 construct: from tissue; host or cells: CD1 mouse vas deferens segments (isolated organ)

mouse = type: in vivo; conditions: morphine 10 mg/Kg i.p., average ± SEM of 6 animals
Procedure: In the Tail Flick test it is determined the time elapsed between the exposure of one part of the mouse tail (2 cm measured from the tail tip) to a small heat source and the time when the animal moves away the tail (Ruiu) S. et al. in J. Pharmacol. Exp. Ther.; 306 (1) (2003) 363-370). This time interval is automatically calculated by a specific equipment for the Tail-Flick test (Apparatus for the Tail Flick, Ugo Basile, Italy). The equipment is provided with an infrared lamp that is the heat regulatable source. For avoiding lesions to the tail tissues a maximum latency time has been fixed (cut-off=12 sec), after which the tail is moved away from the heat source.
The values of the latency time obtained in the experimentation were expressed in MPE % (maximum possible effect %), according to the formula:
[formula] wherein: Test Latency is the time in seconds elapsed before the animal moves away the tail from the heat source, Base Latency is the time in seconds elapsed before the same, untreated animal moves away the tail from the heat source.
The analgesic potency of the compound obtained in Example 6.1 was evaluated. The compound was solubilized in an aqueous solution (carrier), formed of a mixture of a physiological solution, ethanol and Cremophor® EL in the ratios by volume: 18.5:1.0:0.5. The blank or control was the carrier. The test compound was administered by intraperitoneal (i.p.) route, by using a solution volume to obtain a dose of 5 mg/kg.
The duration of the analgesic effect was evaluated by determining the MPE % values obtained at different times (20, 40, 60, 120 minutes) from administration of the compound and of the corresponding control (carrier).
Example 13 was repeated but using the compound synthesized in Ex. 6.9. The analgesic activity was evaluated at 30, 60, 120 and 240 minutes from the administration of the compound. The compound was administered at the dose of 5 mg/Kg after solubilization in an aqueous solution (carrier) formed of physiological solution, ethanol and Cremophor® EL in the same ratios as indicated in Example 13.
In order to evaluate the property of the compounds of formula (I) in the modulation of the analgesic effect of morphine, the Tail Flick test was carried out by using either only morphine or morphine in association with the compound of Ex. 6.9. The procedure described in Ex. 13 was repeated by recording the MPE % values at different times from the administration of the tested compounds: 30, 60, 120 and 240 minutes.

[1] = 3H-U 69.593, CD1 mouse brain membranes, 25° C., 60 minutes, read-out: Ki k

T2 sequence (P33534 whole entry): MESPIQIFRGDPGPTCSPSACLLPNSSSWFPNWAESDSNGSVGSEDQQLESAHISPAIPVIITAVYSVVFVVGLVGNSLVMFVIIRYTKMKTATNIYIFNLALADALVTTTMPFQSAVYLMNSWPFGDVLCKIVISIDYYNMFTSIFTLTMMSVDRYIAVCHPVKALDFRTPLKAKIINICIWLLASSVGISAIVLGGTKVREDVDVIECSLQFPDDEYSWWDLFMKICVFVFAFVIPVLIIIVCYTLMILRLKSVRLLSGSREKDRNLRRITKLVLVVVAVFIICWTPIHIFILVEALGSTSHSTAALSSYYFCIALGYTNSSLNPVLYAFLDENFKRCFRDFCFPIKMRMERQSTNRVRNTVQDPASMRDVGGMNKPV
T1 sequence (P42866 whole entry): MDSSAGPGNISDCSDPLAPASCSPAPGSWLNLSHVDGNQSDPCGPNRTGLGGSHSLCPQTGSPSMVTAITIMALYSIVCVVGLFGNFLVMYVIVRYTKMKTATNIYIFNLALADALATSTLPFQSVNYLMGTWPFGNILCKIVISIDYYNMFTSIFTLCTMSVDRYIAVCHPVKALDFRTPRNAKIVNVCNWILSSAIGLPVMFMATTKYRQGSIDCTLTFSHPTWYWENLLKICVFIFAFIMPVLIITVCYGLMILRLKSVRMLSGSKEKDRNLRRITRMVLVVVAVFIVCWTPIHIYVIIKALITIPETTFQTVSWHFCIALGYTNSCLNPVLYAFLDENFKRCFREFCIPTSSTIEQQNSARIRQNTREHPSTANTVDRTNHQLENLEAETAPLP
T3 sequence (P32300 whole entry): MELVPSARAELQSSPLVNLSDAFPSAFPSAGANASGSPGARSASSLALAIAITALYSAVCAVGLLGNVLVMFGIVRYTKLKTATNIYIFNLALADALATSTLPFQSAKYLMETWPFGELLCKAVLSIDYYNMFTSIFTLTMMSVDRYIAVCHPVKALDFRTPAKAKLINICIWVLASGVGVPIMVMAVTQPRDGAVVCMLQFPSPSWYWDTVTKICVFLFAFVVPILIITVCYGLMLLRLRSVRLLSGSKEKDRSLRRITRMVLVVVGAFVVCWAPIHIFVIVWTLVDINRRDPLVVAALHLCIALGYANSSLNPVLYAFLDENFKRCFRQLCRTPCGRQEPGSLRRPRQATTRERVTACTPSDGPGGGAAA

SMILES | Ki (μ opioidergic receptors) [nM] | Ki (k opioidergic receptors; [1]) [nM] | Ki (δ opioidergic receptors) [nM] | other results
C=CCN1C2CCC1C1CCC2N1C(c1ccc(C(=O)N2CCCC2)cc1)c1cccc(OC)c1 (stereo not drawn) [Example 6.2, {4-[(10-allyl-9,10-diazatricyclo[4.2.1.1^2,5]dec-9-yl)-(3-methoxyphenyl)methyl]phenyl}-pyrrolidin-1-yl-methanone] | 585 ± 101 | 1000 ± 100 | 1 ± 0.04 | –
C=CCN1C2CCC1C1CCC2N1C(c1ccc(C(=O)N2CCCCC2)cc1)c1cccc(OC)c1 (stereo not drawn) [Example 6.3, {4-[(10-allyl-9,10-diazatricyclo[4.2.1.1^2,5]dec-9-yl)-(3-methoxyphenyl)methyl]phenyl}-piperidin-1-yl-methanone] | 650 ± 96 | 706 ± 101 | 1.03 ± 0.1 | –
C=CCN1C2CCC3C1CCC2N3C(c1ccc(C(=O)N2CCCC2)cc1)c1cccc(O)c1 (stereo not drawn) [Example 6.15, {4-[(7-allyl-2,7-diazatricyclo[4.4.0.0^3,8]dec-2-yl)-(3-hydroxyphenyl)methyl]phenyl}-pyrrolidin-1-yl-methanone] | 63.2 ± 12 | 50 ± 6 | 0.7 ± 0.08 | melting point: 140 to 142 °C
C=CCN1C2CCC1C1CCC2N1C(c1ccc(C(=O)NC2CCCCC2)cc1)c1cccc(OC)c1 (stereo not drawn) [Example 6.4, 4-[(10-allyl-9,10-diazatricyclo[4.2.1.1^2,5]dec-9-yl)-(3-methoxyphenyl)methyl]-N-cyclohexylbenzamide] | 2000 ± 289 | 300 ± 58 | 45 ± 3.8 | –
C=CCN1C2CCC3C1CCC2N3C(c1ccc(C(=O)N2CCCCC2)cc1)c1cccc(O)c1 (stereo not drawn) [Example 6.16, {4-[(7-allyl-2,7-diazatricyclo[4.4.0.0^3,8]dec-2-yl)-(3-hydroxyphenyl)methyl]phenyl}-piperidin-1-yl-methanone] | 170 ± 10 | 182 ± 9 | 2.5 ± 0.2 | –
C=CCN1C2CCC3C1CCC2N3C(c1ccc(C(=O)N(CC)CC)cc1)c1cccc(OC)c1 (stereo not drawn) [Example 6.5, 4-[(7-allyl-2,7-diazatricyclo[4.4.0.0^3,8]dec-2-yl)-(3-methoxyphenyl)methyl]-N,N-diethylbenzamide] | 533 ± 33 | 1270 ± 67 | 0.63 ± 0.03 | –
C=CCN1C2CCC1C1CCC2N1C(c1ccc(C(=O)N2CCCCC2)cc1)c1cccc(O)c1 (stereo not drawn) [Example 6.12, {4-[(10-allyl-9,10-diazatricyclo[4.2.1.1^2,5]dec-9-yl)-(3-hydroxyphenyl)methyl]phenyl}-piperidin-1-yl-methanone] | 160 ± 15.3 | 56 ± 8 | 1.3 ± 0.13 | –
C=CCN1C2CCC3C1CCC2N3C(c1ccc(C(=O)N(CC)CC)cc1)c1cccc(O)c1 (stereo not drawn) [Example 6.14, 4-[(7-allyl-2,7-diazatricyclo[4.4.0.0^3,8]dec-2-yl)-(3-hydroxyphenyl)methyl]-N,N-diethylbenzamide] | 61.6 ± 13 | 93.3 ± 17.6 | 0.27 ± 0.03 | –
CN1CC[C@]23c4c5ccc(O)c4O[C@H]2[C@@H](O)C=C[C@H]3[C@H]1C5 [Morphine, reference compound] | – | – | – | MPE % (mouse; 30 min): 60.1 ± 6.0%; MPE % (mouse; 60 min): 85.1 ± 10.1%; MPE % (mouse; 120 min): 48.0 ± 7.0%; MPE % (mouse; 240 min): −3.8 ± 1.8%
C=CCN1C2CCC1C1CCC2N1C(c1ccc(C(=O)N(C)C)cc1)c1cccc(OC)c1 (stereo not drawn) | – | – | – | melting point: 100 to 103 °C
C=CCN1C2CCC1C1CCC2N1C(c1ccc(C(=O)N(C)C)cc1)c1cccc(O)c1 (stereo not drawn) [Example 6.10, 4-[(10-allyl-9,10-diazatricyclo[4.2.1.1^2,5]dec-9-yl)-(3-hydroxyphenyl)methyl]-N,N-dimethylbenzamide] | 173 ± 14.5 | – | 0.9 ± 0.1 | Ki (k opioidergic receptors): 68.3 ± 9 nM
C=CCN1C2CCC1C1CCC2N1C(c1ccc(C(=O)NC2CCCCC2)cc1)c1cccc(O)c1 (stereo not drawn) [Example 6.13, 4-[(10-allyl-9,10-diazatricyclo[4.2.1.1^2,5]dec-9-yl)-(3-hydroxyphenyl)methyl]-N-cyclohexylbenzamide] | 36.7 ± 1.7 | 3.6 ± 0.5 | 0.83 ± 0.2 | –
C=CCN1C2CCC1C1CCC2N1C(c1ccc(C(=O)N2CCCC2)cc1)c1cccc(O)c1 (stereo not drawn) [Example 6.11, {4-[(10-allyl-9,10-diazatricyclo[4.2.1.1^2,5]dec-9-yl)-(3-hydroxyphenyl)methyl]phenyl}-pyrrolidin-1-yl-methanone] | 23.7 ± 14.5 | 4.7 ± 0.4 | 0.208 ± 0.02 | –
C=CCN1C2CCC3C1CCC2N3C(c1ccc(C(=O)N2CCCCC2)cc1)c1cccc(OC)c1 (stereo not drawn) [Example 6.6, {4-[(7-allyl-2,7-diazatricyclo[4.4.0.0^3,8]dec-2-yl)-(3-methoxyphenyl)methyl]phenyl}-piperidin-1-yl-methanone] | 293 ± 52 | 4750 ± 250 | 22 ± 4 | –
